Where two headings read alike, the source gives them in different places.
Assays:
[1] = tested on: panel of 55 breast cancer cell lines; experiment: Cell growth inhibition assay (Cell Titer Glo, 72 h, 9 doses; GI50, TGI, LC50); format: cell-based, human; details: Homo sapiens, read-out: GI50 (converted)
[2] = tested on: luminal, basal, claudin-low and ERBB2AMP breast cancer cell lines; experiment: Associations of clinically relevant subtypes and response (non-parametric ANOVA or t-test on GI50 ranks); format: cell-based, human; details: Table 6; most sensitive subtype, FDR p<0.20
Text: A central premise of this study is that associations between responses and molecular subtypes observed in preclinical cell line analyses will be recapitulated in the clinic in instances where the predictive molecular features in the cell lines are mirrored in human tumors. We established response-subtype associations by using non-parametric ANOVAs to compare […] values across transcriptional and genomics subtypes.
Differences between GI50s of the groups were compared with a non-parametric ANOVA or t-test, as appropriate, on the ranks. We combined the p-values for the three sets of tests and used false discovery rate (FDR) to correct for multiple testing. For the three-sample test, we performed a post-hoc analysis on the compounds with a significant class effect by comparing each group to all others to determine which group was most sensitive. The p-values for the post-hoc test were FDR-corrected together. In all cases, FDR p<0.20 was deemed significant. […] Analyses were performed in R.

CS(=O)(=O)CCNCc1ccc(-c2ccc3ncnc(Nc4ccc(OCc5cccc(F)c5)c(Cl)c4)c3c2)o1 [Lapatinib]
1.82 µM: GI50 ([1]; UACC-893, cell line UACC893, censored GI50 values) | GI50 ([1]; UACC-893, cell line UACC893)
8.91 µM: GI50 ([1]; MDA-MB-361, cell line MDAMB361, censored GI50 values) | GI50 ([1]; MDA-MB-361, cell line MDAMB361) | GI50 ([1]; MDA-MB-453, cell line MDAMB453, censored GI50 values) | GI50 ([1]; MDA-MB-453, cell line MDAMB453)
0.269 µM: GI50 ([1]; HCC1419, cell line HCC1419, censored GI50 values) | GI50 ([1]; HCC1419, cell line HCC1419)
15.5 µM: GI50 ([1]; cell line SUM1315MO)
0.692 µM: GI50 ([1]; SUM225CWN, cell line SUM225CWN, censored GI50 values) | GI50 ([1]; SUM225CWN, cell line SUM225CWN)
0.513 µM: GI50 ([1]; SK-BR-3, cell line SKBR3, censored GI50 values) | GI50 ([1]; SK-BR-3, cell line SKBR3)
Luminal/ERBB2AMP: Subtype specificity [2]
0.457 µM: GI50 ([1]; UACC-812, cell line UACC812, censored GI50 values) | GI50 ([1]; UACC-812, cell line UACC812)
0.759 µM: GI50 ([1]; HCC202, cell line HCC202, censored GI50 values) | GI50 ([1]; HCC202, cell line HCC202)
16.6 µM: GI50 ([1]; BT-20, cell line BT20) | GI50 ([1]; BT-483, cell line BT483) | GI50 ([1]; BT-549, cell line BT549) | GI50 ([1]; CAMA-1, cell line CAMA1) | GI50 ([1]; HCC38, cell line HCC38) | GI50 ([1]; HCC1143, cell line HCC1143) | GI50 ([1]; HCC1187, cell line HCC1187) | GI50 ([1]; HCC1395, cell line HCC1395) | GI50 ([1]; HCC1428, cell line HCC1428) | GI50 ([1]; HCC1500, cell line HCC1500) | GI50 ([1]; HCC1806, cell line HCC1806) | GI50 ([1]; HCC1937, cell line HCC1937) | GI50 ([1]; MCF7, cell line MCF7) | GI50 ([1]; MDA-MB-157, cell line MDAMB157) | GI50 ([1]; MDA-MB-231, cell line MDAMB231) | GI50 ([1]; MDA-MB-436, cell line MDAMB436) | GI50 ([1]; MDA-MB-468, cell line MDAMB468) | GI50 ([1]; SUM52PE, cell line SUM52PE) | GI50 ([1]; T47D, cell line T47D) | GI50 ([1]; ZR-75-1, cell line ZR751) | GI50 ([1]; ZR-75B, cell line ZR75B) | GI50 ([1]; cell line 600MPE) | GI50 ([1]; cell line HCC3153)
3.8 µM: GI50 ([1]; cell line HCC2185, censored GI50 values) | GI50 ([1]; cell line HCC2185)
0.398 µM: GI50 ([1]; AU565, cell line AU565, censored GI50 values) | GI50 ([1]; AU565, cell line AU565) | GI50 ([1]; BT-474, cell line BT474, censored GI50 values) | GI50 ([1]; BT-474, cell line BT474)
0.933 µM: GI50 ([1]; MDA-MB-175-VII, cell line MDAMB175VII, censored GI50 values) | GI50 ([1]; cell line MDAMB175V)
2.75 µM: GI50 ([1]; HCC1954, cell line HCC1954, censored GI50 values) | GI50 ([1]; HCC1954, cell line HCC1954)
11 µM: GI50 ([1]; HCC70, cell line HCC70)

From patent publication US10770169B2, “Method of providing a treatment to a subject based on a dynamic pathway map” (THE REGENTS OF THE UNIVERSITY OF CALIFORNIA, priority 2010, dated 2020)
